The values below come from patent US20210395239A1 (Hoffmann-La Roche Inc., priority 2018, published 2021).

In the assay the target is T1, human TLR7 (Homo sapiens, UniProt Q9NYK1).
T1 construct: host or cells: HEK293 (HEK-Blue hTLR7)
T1 sequence (Q9NYK1 27-1049): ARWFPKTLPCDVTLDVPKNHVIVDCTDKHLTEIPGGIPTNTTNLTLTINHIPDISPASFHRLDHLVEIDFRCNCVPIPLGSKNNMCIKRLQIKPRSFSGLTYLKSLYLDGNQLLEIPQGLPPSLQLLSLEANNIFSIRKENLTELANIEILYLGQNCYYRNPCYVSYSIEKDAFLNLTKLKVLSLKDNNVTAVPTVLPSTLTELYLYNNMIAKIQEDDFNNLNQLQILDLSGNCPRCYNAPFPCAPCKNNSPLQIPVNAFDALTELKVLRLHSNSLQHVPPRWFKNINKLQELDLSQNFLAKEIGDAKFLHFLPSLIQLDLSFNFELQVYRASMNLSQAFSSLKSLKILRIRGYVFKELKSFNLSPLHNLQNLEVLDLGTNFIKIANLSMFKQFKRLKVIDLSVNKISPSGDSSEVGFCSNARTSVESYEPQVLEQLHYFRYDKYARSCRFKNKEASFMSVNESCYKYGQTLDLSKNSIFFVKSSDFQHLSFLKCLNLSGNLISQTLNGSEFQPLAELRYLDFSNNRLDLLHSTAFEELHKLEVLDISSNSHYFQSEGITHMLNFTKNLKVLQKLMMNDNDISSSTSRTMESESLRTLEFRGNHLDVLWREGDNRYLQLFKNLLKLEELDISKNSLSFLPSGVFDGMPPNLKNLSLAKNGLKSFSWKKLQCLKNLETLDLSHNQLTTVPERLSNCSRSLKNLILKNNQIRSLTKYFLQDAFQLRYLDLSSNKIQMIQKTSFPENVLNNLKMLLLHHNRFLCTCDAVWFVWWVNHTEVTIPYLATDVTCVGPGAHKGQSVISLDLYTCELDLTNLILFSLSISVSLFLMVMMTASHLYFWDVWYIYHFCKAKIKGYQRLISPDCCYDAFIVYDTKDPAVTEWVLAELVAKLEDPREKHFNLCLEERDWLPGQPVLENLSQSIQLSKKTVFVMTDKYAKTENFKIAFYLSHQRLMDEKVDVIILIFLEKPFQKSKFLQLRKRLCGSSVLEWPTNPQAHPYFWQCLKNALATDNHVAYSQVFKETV
Nature of the assay: HEK293-Blue-hTLR-7 cells assay (SEAP reporter, R848 stimulation). Type of assay: cell-based. To be noted: HEK293-Blue-hTLR7 cells, R848, 20 hrs; read-out: HEK/hTLR7 IC50. From the text: HEK293-Blue-hTLR-7 Cells Assay:
A stable HEK293-Blue-hTLR-7 cell line was purchased from InvivoGen (Cat. #: hkb-ht1r7, San Diego, Calif., USA). These cells were originally designed for studying the stimulation of human TLR7 by monitoring the activation of NF-κB. A SEAP (secreted embryonic alkaline phosphatase) reporter gene was placed under the control of the IFN-β minimal promoter fused to five NF-κB and AP-1-binding sites. The SEAP was induced by activating NF-κB and AP-1 via stimulating HEK-Blue hTLR7 cells with TLR7 ligands. Therefore the reporter expression was declined by TLR7 antagonist under the stimulation of a ligand, such as R848 (Resiquimod), for incubation of 20 hrs. The cell culture supernatant SEAP reporter activity was determined using QUANTI-Blue™ kit (Cat. #: rep-qb1, Invivogen, San Diego, Ca, USA) at a wavelength of 640 nm, a detection medium that turns purple or blue in the presence of alkaline phosphatase.
HEK293-Blue-hTLR7 cells were incubated at a density of […] cells/mL in a volume of 170 μL in a 96-well plate in Dulbecco's Modified Eagle's medium (DMEM) containing 4.5 g/L glucose, 50 U/mL penicillin, […], […], 2 mM L-glutamine, 10% (v/v) heat-inactivated fetal bovine serum with addition of 20 μL test compound in a serial dilution in the presence of final DMSO at 1% and 10 μL of 20 uM R848 in above DMEM, perform incubation under 37° C. in a CO2 incubator for 20 hrs. Then 20 μL of the supernatant from each well was incubated with 180 μL Quanti-blue substrate solution at 37° C. for 2 hrs and the absorbance was read at 620˜655 nm using a spectrophotometer. The signaling pathway that TLR7 activation leads to downstream NF-κB activation has been widely accepted, and therefore similar reporter assay was modified for evaluating TLR7 antagonist.
Consider `COC1CN(c2nccc(N3CCN(C[C@H]4CN(c5ccc(C#N)c6ncccc56)C[C@@H](C)O4)CC3)n2)CC1N` (stereo in doubt) [Example 93, 5-[(2S,6R)-2-[[4-[2-[(3R,4S)-3-amino-4-methoxy-pyrrolidin-1-yl]pyrimidin-4-yl]piperazin-1-yl]methyl]-6-methyl-morpholin-4-yl]quinoline-8-carbonitrile], for which the IC50 was 12 nM. Regarding `C[C@@H]1CN(c2ccc(C#N)c3ncccc23)C[C@H](CN2CCC(c3cccc(N4CCNCC4)c3)C2)O1` (stereo partly drawn) [Example 1, 5-[(2R,6S)-2-methyl-6-[[3-(3-piperazin-1-ylphenyl)pyrrolidin-1-yl]methyl]morpholin-4-yl]quinoline-8-carbonitrile], the IC50 was determined as 84 nM. Take `C[C@@H]1CN(c2ccc(C#N)c3ncccc23)C[C@H](CN2CCC(c3cccc(C4CCNCC4)c3)CC2)O1` [Example 2, 5-[(2R,6S)-2-methyl-6-[[4-[3-(4-piperidyl)phenyl]-1-piperidyl]methyl]morpholin-4-yl]quinoline-8-carbonitrile]: the IC50 stood at 93 nM. The result for `C[C@@H]1CN(c2ccc(C#N)c3ncccc23)C[C@H](CN2CC(c3ccc(N4CCNCC4)cc3)C2)O1` [Example 3, 5-[(2R,6S)-2-methyl-6-[[3-(4-piperazin-1-ylphenyl)azetidin-1-yl]methyl]morpholin-4-yl]quinoline-8-carbonitrile] reads 11 nM; that for `C[C@@H]1CN(c2ccc(C#N)c3ncccc23)C[C@H](CN2CC(c3cccc(N4CCNCC4)c3)C2)O1` [Example 4, 5-[(2R,6S)-2-methyl-6-[[3-(3-piperazin-1-ylphenyl)azetidin-1-yl]methyl]morpholin-4-yl]quinoline-8-carbonitrile], 16 nM; that for `C[C@@H]1CN(c2ccc(C#N)c3ncccc23)C[C@H](CN2CCN(c3ccc(CN)cc3)CC2)O1` [Example 5, 5-[(2S,6R)-2-[[4-[4-(aminomethyl)phenyl]piperazin-1-yl]methyl]-6-methyl-morpholin-4-yl]quinoline-8-carbonitrile], 54 nM.

`C[C@@H]1CN(c2ccc(C#N)c3ncccc23)C[C@H](CN2CCN(c3cnc(N4CCNCC4)cn3)CC2)O1` [Example 6, 5-[(2R,6S)-2-methyl-6-[[4-(5-piperazin-1-ylpyrazin-2-yl)piperazin-1-yl]methyl]morpholin-4-yl]quinoline-8-carbonitrile]: the IC50 is 51 nM. For `COc1cc(N2CCN(C[C@H]3CN(c4ccc(C#N)c5ncccc45)C[C@@H](C)O3)CC2)nc(N2CCNCC2)n1` [Example 91, 5-[(2S,6R)-2-[[4-(6-methoxy-2-piperazin-1-yl-pyrimidin-4-yl)piperazin-1-yl]methyl]-6-methyl-morpholin-4-yl]quinoline-8-carbonitrile], the IC50 was 13 nM. Then `CO[C@@H]1CN(c2nccc(N3CCN(C[C@H]4CN(c5ccc(C#N)c6ncccc56)C[C@@H](C)O4)CC3)n2)C[C@@H]1N` [Example 92, 5-[(2S,6R)-2-[[4-[2-[(3S,4R)-3-amino-4-methoxy-pyrrolidin-1-yl]pyrimidin-4-yl]piperazin-1-yl]methyl]-6-methyl-morpholin-4-yl]quinoline-8-carbonitrile], with 5 nM. Then `C[C@@H]1CN(c2ccc(C#N)c3ncccc23)C[C@H](CN2CCN(c3ncc(F)c(N4CCNCC4)n3)CC2)O1` [Example 94, 5-[(2S,6R)-2-[[4-(5-fluoro-4-piperazin-1-yl-pyrimidin-2-yl)piperazin-1-yl]methyl]-6-methyl-morpholin-4-yl]quinoline-8-carbonitrile], with 13 nM; and `C[C@@H]1CN(c2ccc(C#N)c3ncccc23)C[C@H](CN2CCN(c3ccnc(N4C[C@@H](F)[C@@H](N)C4)n3)CC2)O1` [Example 95, 5-[(2S,6R)-2-[[4-[2-[(3S,4R)-3-amino-4-fluoro-pyrrolidin-1-yl]pyrimidin-4-yl]piperazin-1-yl]methyl]-6-methyl-morpholin-4-yl]quinoline-8-carbonitrile], with 7 nM.

Turning to `C[C@@H]1CN(c2ccc(C#N)c3ncccc23)C[C@H](CN2CCN(c3ccnc(N4C[C@@H](N)[C@H](F)C4)n3)CC2)O1` [Example 96, 5-[(2S,6R)-2-[[4-[2-[(3R,4R)-3-amino-4-fluoro-pyrrolidin-1-yl]pyrimidin-4-yl]piperazin-1-yl]methyl]-6-methyl-morpholin-4-yl]quinoline-8-carbonitrile], the IC50 was determined as 18 nM. Then `CO[C@H]1CN(c2ccnc(N3CCN(C[C@H]4CN(c5ccc(C#N)c6ncccc56)C[C@@H](C)O4)CC3)n2)C[C@@H]1N` [Example 97, 5-[(2S,6R)-2-[[4-[4-[(3S,4S)-3-amino-4-methoxy-pyrrolidin-1-yl]pyrimidin-2-yl]piperazin-1-yl]methyl]-6-methyl-morpholin-4-yl]quinoline-8-carbonitrile], with 27 nM; and `CO[C@@H]1CN(c2nccc(N3CCN(C[C@H]4CN(c5ccc(C#N)c6nccnc56)C[C@@H](C)O4)CC3)n2)C[C@H]1N` [Example 98, 8-[(2S,6R)-2-[[4-[2-[(3R,4R)-3-amino-4-methoxy-pyrrolidin-1-yl]pyrimidin-4-yl]piperazin-1-yl]methyl]-6-methyl-morpholin-4-yl]quinoxaline-5-carbonitrile], with 6 nM; and `CO[C@H]1CN(c2nccc(N3CCN(C[C@H]4CN(c5ccc(C#N)c6nccnc56)C[C@@H](C)O4)CC3)n2)C[C@@H]1N` [Example 99, 8-[(2S,6R)-2-[[4-[2-[(3S,4S)-3-amino-4-methoxy-pyrrolidin-1-yl]pyrimidin-4-yl]piperazin-1-yl]methyl]-6-methyl-morpholin-4-yl]quinoxaline-5-carbonitrile], with 11 nM. The result for `C[C@@H]1CN(c2ccc(C#N)c3ncccc23)C[C@H](CN2CCN(c3ccnc(N4C[C@@H](N)[C@@H](F)C4)n3)CC2)O1` [Example 101, 5-[(2S,6R)-2-[[4-[2-[(3R,4S)-3-amino-4-fluoro-pyrrolidin-1-yl]pyrimidin-4-yl]piperazin-1-yl]methyl]-6-methyl-morpholin-4-yl]quinoline-8-carbonitrile] reads 11 nM.

With `Cc1cnc(N2CCN(C[C@H]3CN(c4ccc(C#N)c5ncccc45)C[C@@H](C)O3)CC2)nc1N1CCNCC1` [Example 102, 5-[(2R,6S)-2-methyl-6-[[4-(5-methyl-4-piperazin-1-yl-pyrimidin-2-yl)piperazin-1-yl]methyl]morpholin-4-yl]quinoline-8-carbonitrile], the IC50 came to 18 nM.

On to `C[C@@H]1CN(c2ccc(C#N)c3ncccc23)C[C@H](CN2CCN(c3ccnc(N4C[C@H]5NCCO[C@@H]5C4)n3)CC2)O1` [Example 103, 5-[(2S,6R)-2-[[4-[2-[(4aR,7aR)-3,4,4a,5,7,7a-hexahydro-2H-pyrrolo[3,4-b][1,4]oxazin-6-yl]pyrimidin-4-yl]piperazin-1-yl]methyl]-6-methyl-morpholin-4-yl]quinoline-8-carbonitrile], for which the IC50 stood at 10 nM.

`CO[C@H]1CN(c2cc(C)nc(N3CCN(C[C@H]4CN(c5ccc(C#N)c6nccnc56)C[C@@H](C)O4)CC3)n2)C[C@@H]1N` [Example 104, 8-[(2S,6R)-2-[[4-[4-[(3S,4S)-3-amino-4-methoxy-pyrrolidin-1-yl]-6-methyl-pyrimidin-2-yl]piperazin-1-yl]methyl]-6-methyl-morpholin-4-yl]quinoxaline-5-carbonitrile]: the IC50 is 22 nM.
